Measured values from patent publication US11213512B2, “Bis-amino acid based compound and use thereof” (THE CURATORS OF THE UNIVERSITY OF MISSOURI, priority 2016, dated 2022).
Where two headings read alike, the source gives them in different places.

What was measured:
[1] = system: E. coli K12; assay: MIC, CLSI/NCCLS broth microdilution; format: cell-based, Escherichia coli; details: Escherichia coli, K12, 24 h, read-out: Minimal Inhibitory Concentration (MIC) E. coli K12
Experimental: (§1) Two different strains of E. coli (Gram-negative) were used. The laboratory strain of E. coli, K-12 (ATCC Accession No. 700926), was used for preliminary MIC determinations. The tetracycline resistant strain of E. coli (Tet^R) was prepared by transforming competent JM109 E. coli (Promega) with the pBR322 plasmid (Carolina Biologicals) using the manufacturers protocol. This plasmid contains two resistance genes: the tetA gene expresses the tetracycline resistance TetA efflux pump (Sapunaric and Levy, Microbiol. 2005, 151, 2315-2322) and the amp^R gene expresses a β-lactamase enzyme (Bolivar, et al; Gene 1977, 2, 95-113) that cleaves the four membered ring of penicillin derivatives. The resulting E. coli, which we designate Tet^R E. coli, is both tetracycline and ampicillin resistant. The TetA efflux pump belongs to the major facilitator superfamily (MFS), spans the cytoplasmic membrane, and transports tetracycline from the cell cytoplasm to the periplasmic space (Thanassi, et al., J. Bacteriol. 1995, 177, 998-1007). This active efflux utilizes the proton gradient as an energy source (Levy, Antimicrob. Agents Chemother. 1992, 36, 695-703). One Gram-positive strain, S. aureus (ATCC Accession No. 29213), used for MIC study expresses the MFS type NorA efflux pump and is methicillin sensitive. MFS type efflux pumps are clinically relevant for resistance in both Gram-positive and Gram-negative bacteria (Sun, et al., Biochem. Biophys. Res. Commun. 2014, 453, 254-267). A Staphylococcus aureus 1199B strain that overexpresses the NorA efflux pump was also used to conduct checkerboard experiments (see, Example 8 below). This strain of S. aureus 1199B is resistant to both norfloxacin and ethidium bromide.
(§2) K-12 E. coli and S. aureus were acquired from ATCC. The S. aureus strain was used in the BSL-2 facility. K-12 E. coli was grown in L. B. Miller media (Sigma-Aldrich) and S. aureus was grown in cation adjusted MHII media (Sigma-Aldrich). Tet^R E. coli was grown in L. B. Miller media containing 100 μg/mL Ampicillin.
(§3) MIC experiments were performed as described in the Clinical and Laboratory Standards Institute (CLSI) standard microdilution protocols. Bacteria was grown overnight from one CFU in media without antibiotics. Tet^R E. coli was grown in media containing 100 μg/mL Ampicillin. On the day of experiment, bacteria were knocked back to O.D. 600 nm=0.550 in the same media. These exponential phase bacteria were then diluted in antibiotics-free media to get […]. In a 96-well plate either L. B. Miller or MHII media was added followed by serially diluted compounds 1-11, tetracycline, or ampicillin. All the tryptophan based compounds were dissolved in DMSO and the final concentration of DMSO in each well was kept constant at 0.5% (v/v).
(§4) For the combination experiments, first, the BT or control was added to the media in the well followed by the antibiotics. The contents of the well were mixed before adding 20 μL of bacteria to get 4×10^5 CFU/mL per well. The plates were incubated at 37° C., 200 RPM for 24 hours before collecting results on the Biotek Cytation 3 plate reader. No more than three plates were stacked on top of each other at a time. Optical density of the wells was determined at λ=600 nm. Cells alone were considered as 0% inhibition and media alone was considered as 100% inhibition. Any inhibition greater than 80% was considered as the MIC. The results were reproduced three times before reporting.
(§5) All minimum inhibitory concentration (MIC) values for compounds 1-11 were determined according to the methods prescribed by the National Committee for Clinical Laboratory Standards (NCCLS, Methods for Dilution Antimicrobial Susceptibility Tests for Bacteria that grow aerobically; National Committee for Clinical Laboratory Standards 2000, 5th Edition, M7-A5). […]

[2] = system: Tet^R E. coli; assay: MIC, CLSI/NCCLS broth microdilution; format: cell-based, Escherichia coli; details: 24 h; for Minimal Inhibitory Concentration (MIC) E. coli Tet^R: >80% growth inhibition, 37° C., substance alone; for MIC: Escherichia coli, read-out: Minimal Inhibitory Concentration (MIC) E. coli Tet^R
Experimental: as §1, §2, §3, §4, §5

[3] = system: S. aureus (ATCC Accession No. 29213); assay: MIC, CLSI/NCCLS broth microdilution; format: cell-based, Staphylococcus aureus; details: Staphylococcus aureus, read-out: Minimal Inhibitory Concentration (MIC) S. aureus
Experimental: as §1, §2, §3, §4, §5

[4] = system: Tet^R E. coli; assay: Membrane permeability and viability, confocal microscopy (propidium iodide / fluorescein diacetate); format: cell-based, Escherichia coli; details: 2 at 24 μM, 10 at 6 μM (~½ MIC), 30 min
Experimental: To test the membrane permeability of the Tet^R E. coli, the bacteria was first grown overnight from one CFU in media containing 100 μg/mL Ampicillin at 37° C. and 200 RPM. Tet^R E. coli was then knocked back to O.D. 600 nm=0.550 before use. In a sterile test tube, cells were added followed by either compounds 2 or 10 at half-MIC concentrations and incubated at 37° C. and 200 RPM. The concentration of DMSO was kept constant at 0.5% —by volume in each case. After 30 minutes of incubation, the cells were washed by centrifugation at 3000×g for 5 minutes and re-suspended in sterile phosphate buffered saline (PBS). Propidium iodide (30 μM, Thermo-Fischer) and fluorescein diacetate (60 μM, Sigma-Aldrich) were added to the Tet^R E. coli cells in the PBS, mixed by vortexing and incubated at 37° C. and 200 RPM. After 30 minutes, the cells were washed again by centrifugation at 3000×g for 5 minutes. The pellet was suspended in a fresh PBS, loaded onto a clean glass slide, covered with a cover slip and observed under Zeiss LSM 700 confocal microscope.
The study was designed to assess the membrane permeability and viability of the E. coli in the presence of BTs 2 and 10. The three panels in FIG. 6 show the bright field (BF) microscopic images (top row), the result when fluorescein diacetate (FDA) is present (middle row), and the presence of propidium iodide (PI, bottom row), if any. […] When it does, it intercalates in DNA, which leads to enhanced fluorescence. Fluorescein diacetate is incorporated into the cells during growth, but is not fluorescent. If the organism is or remains vital, the diester will be hydrolyzed and fluorescein will be observed by its fluorescence emission.
Controls for the permeability/viability assay were included for E. coli in the presence of a final concentration of 0.5% (v/v) DMSO (the vehicle for administration of BTs), and a final concentration of 0.1% […] Triton X-100. […] Thus, less than or equal to 0.5% DMSO (v/v) was always used; the control is shown in the second column. Triton X-100 is a potent detergent, which was used at 0.1% or ˜1,670 μM.

[5] = ATCC29213, >80% growth inhibition, 24 h, 37° C.

Structure (SMILES)	MIC [1]	Minimal Inhibitory Concentration (MIC) E. coli Tet^R [2]	MIC [2]	MIC [3, 5]	viability (fluorescein diacetate fluorescence) [4]	melting point	MIC ([3]; ATCC29213, 24 h)
Cl.Cl.N[C@@H](Cc1c[nH]c2ccccc12)C(=O)Nc1cccc(NC(=O)[C@@H](N)Cc2c[nH]c3ccccc23)c1 [Compound 2, (2S,2′S)-1,1′-(1,3-Phenylenebis(azanediyl))bis(3-(1H-indol-3-yl)-1-oxopropan-2-aminium) chloride]	64 µM	48 ± 8 µM	48 ± 8 µM	32 µM	vital	223 °C (dec.)	
Cl.Cl.N[C@H](Cc1c[nH]c2ccccc12)C(=O)Nc1cccc(NC(=O)[C@H](N)Cc2c[nH]c3ccccc23)c1 [Compound 3, (2R,2′R)-1,1′-(1,3-Phenylenebis(azanediyl))bis(3-(1H-indol-3-yl)-1-oxopropan-2-aminium) chloride]	64 µM	28 ± 4 µM	28 ± 4 µM	32 µM		242 °C (dec.)	
Cl.Cl.N[C@@H](Cc1c[nH]c2ccccc12)C(=O)Nc1ccccc1NC(=O)[C@@H](N)Cc1c[nH]c2ccccc12 [Compound 5, (2S,2′S)-1,1′-(1,2-Phenylenebis(azanediyl))bis(3-(1H-indol-3-yl)-1-oxopropan-2-aminium) chloride]	64 µM		56 ± 8 µM	32 µM		201 °C (dec.)	
Cl.Cl.N[C@@H](Cc1c[nH]c2ccccc12)C(=O)Nc1ccc(NC(=O)[C@@H](N)Cc2c[nH]c3ccccc23)cc1 [Compound 6, (2S,2′S)-1,1′-(1,4-Phenylenebis(azanediyl))bis(3-(1H-indol-3-yl)-1-oxopropan-2-aminium) chloride]	128 µM		120 ± 14 µM	128 µM		237 °C (dec.)	
Cl.Cl.N[C@@H](Cc1c[nH]c2ccccc12)C(=O)NCCCNC(=O)[C@@H](N)Cc1c[nH]c2ccccc12 [Compound 7, (2S,2′S)-1,1′-(Propane-1,3-diylbis(azanediyl))bis(3-(1H-indol-3-yl)-1-oxopropan-2-aminium) chloride]	> 128 µM		> 128 µM			234 °C (dec.)	> 128 µM
Cl.Cl.N[C@H](Cc1c[nH]c2ccccc12)C(=O)NCCCCCCCCCCCCNC(=O)[C@@H](N)Cc1c[nH]c2ccccc12 [Compound 10, (S)-1-((12-((R)-2-Ammonio-3-(1H-indol-3-yl)propanamido)dodecyl)amino)-3-(1H-indol-3-yl)-1-oxopropan-2-aminium chloride]	8 µM		10 ± 2 µM	4 µM	vital	158 °C (dec.)	
